This is an account of results in US20260014129A1, “MITOCHONDRIAL PYRUVATE METABOLISM INHIBITORS FOR TREATING CHRONIC MYELOID LEUKEMIA” (The University Court of the University of Glasgow, priority 2022, published 2026).

SMILES strings stand for the structures.

Experiment [1] deals with CML CD34+ cells. Description: Patient-derived xenograft of CML CD34+ cells in NRG-W41 mice, bone marrow flow cytometry. As to conditions: 4 weeks. The format is in vivo, human. As to the method: Treatment was given for 4 weeks. For treatment with asciminib (ABL001) plus MSDC-0160, twelve weeks following transplant, drug treatment was started with both asciminib (Fisher Scientific Cat #1642956) dosed at 10 mg/kg/day (5 mg/kg BID); oral gavage and MSDC-0160 (Apex Biotechnology: Cat #B3702) dosed at 30 mg/kg; oral gavage once daily. Treatment was given for 4 weeks. At the respective endpoints, bone marrow cells were collected. This was done by placing inverted cut leg bones into 0.5 mL Eppendorf tubes with holes at bottom. These in turn were placed within 1.5 mL Eppendorf tubes containing PBS, centrifuged (12,000 RCF, 20 seconds). Cells were stained (300 μl/test) with anti-mouse (APC-Cy7 BD Biosciences: Cat #557659, RRID: AB_396774, 1 μl), anti-human CD45 (FITC; BD Biosciences: Cat #555482, RRID: AB_395874, 10 μl), anti-human CD34 (APC; BD Biosciences: Cat #555824, RRID: AB_398614, 2 μl) and anti-human CD38 (PerCP; BioLegend: Cat #303520, RRID: AB_893313, 2 μl) antibodies for flow cytometry analysis as described above.
For orientation: Xenograft models place foreign cells or tissue in a host animal.

In a further experiment the test system is K562 CML cell line. In words: 13C6 glucose tracing in K562 CML cell line. It is filed as cell-based, human. To be noted: K562, several concentrations. As to the method: (§1) For conjugation of palmitate, a 20 mM stock was made in 100% EtOH. This was incubated on a shaking heater, 60° C. until the solution clarified. The palmitate was then added to 10% BSA (ultra-fatty acid free in EBSS, Roche, 03117057001) to give a palmitate:BSA ratio of 1:3 BSA. This solution was left for 15 min in water bath (37° C.), and then added to final concentration in complete medium. For cell line experiments, the medium was RPMI with 10% dialysed FBS and 1% penicillin/streptomycin. For tracing experiments 11 mM ^13C6 glucose was added to glucose-free RPMI.
(§2) Biological and technical replicates were processed through Autoplotter (56) and natural abundance was corrected for. Fraction of enrichment was calculated as m+2 and above. For CML samples treated with or without imatinib, multiple paired T-tests were conducted on Log 10 transformed values in Graphpad Prism. The correction for multiple comparisons was the two-stage step-up method of Benjamini, Krieger and Yekutieli with an FDR (Q) value of 10%. For volcano plots Log 10 FC vs Log 10 (q value) are plotted with q values>5% in red and >10% in blue. For normal vs CML comparisons, the process was the same with the exception that unpaired t-tests were used. For PC activity in normal vs CML, this is denoted by fraction m+3. For imatinib vs untreated we look at relative activity to PDH. IE., the m+3/m+2 ratio and conducted multiple t-tests with correction for multiple comparisons being the two-stage step-up method of Benjamini, Krieger and Yekutieli with an FDR (Q) value of 10%. To examine contribution to carbon pool we corrected contribution of each isotopologue by the number of carbons it contributes to a given metabolite, i.e., for glutamine contribution from m+5 is greater than m+3. Note that for cell line experiments standard deviation is shown.

In experiment [2] the test system is CML CD34+ cells. In words: LC-MS steady state metabolite analysis of primary CML CD34+ cells. It is filed as cell-based, human. As to conditions: nilotinib treatment, data not shown. The procedure: (§3) Cells were counted using a CASY counter with the following parameters: E-cur 7.5-22.5, N-cur 5.25-20.5. Cell number was multiplied by peak volume (size) and this number was used to calculate volume of solvent to extract in. Cells were pelleted by centrifugation (400 RCF, 10 minutes, room temperature) at which medium was removed for YSI analysis. Cells were then washed twice with ice cold PBS (Calcium and Magnesium free: Thermo Fisher Scientific) with pulse centrifugation (12,000RCF, 15 seconds, 4° C.) used between and after washes. Cells were then extracted in LC-grade ACN:MeOH:H2O solvent (−20° C., 5:3:2) by disrupting the pellet by pipetting followed by a 5 second vortex. Finally, debris was pelleted by centrifugation (16,000RCF, 10 minutes, 4° C.), supernatant transferred to LC-MS glass vials that were stored at −80° C. until analysis.
The LC system composed of a ZIC-pHILIC column (SeQuant, 150×2.1 mm, 5 μm, Merck KGaA) with a ZIC-pHILIC guard column (SeQuant, 20×2.1 mm) with an UltiMate 3000 HPLC system (Thermo Fisher Scientific). The aqueous mobile-phase solvent was 20 mM ammonium carbonate-0.1% ammonium hydroxide solution and with acetonitrile being used for organic mobile phase. A linear biphasic LC gradient was conducted from 80% organic to 80% aqueous for 15 min for a total run time of 22 min. The column temperature was maintained at 45° C. flow rate set to 200 μL/min.
The MS used in this study was a qExactive Plus Orbitrap Mass Spectrometer (Thermo Fisher Scientific) operating in polarity switching mode. The MS set up was calibrated using a custom CALMIX in both ionization modes before analysis and a tune file targeted towards the lower m/z range was used. Full scan (MS1) data was acquired in both ionization modes in profile mode at 70,000 resolution (at m/z range 75-1000), an automatic gain control (AGC) target of 1×10^6 (max fill time of 250 ms), with spray voltages +4.5 kV (capillary +50V, tube: […], skimmer: +20V) and −3.5 kV (capillary −50V, tube: […], skimmer: −20V) and s-lens RF level of 50 for the front optics. The capillary temperature 375° C., probe temperature 50′C, sheath gas flow rate 25, auxiliary gas flow rate 15a.u. 15 and sweep gas flow rate of 1a.u.
(§4) The peak areas of different metabolites were determined using Tracefinder 4.1 software (Thermo Fisher Scientific). Metabolites were identified by accurate mass of the singly charged ion and by known retention times on the pHILIC column. A commercially available standard compound mix (Merck: MSMLS-1EA) had been analysed previously on our LC-MS system to determine accurate ion masses and retention times. The 13C labelling was determined by quantifying peak areas for the accurate mass of all isotopologues of each metabolite.
Two independent experiments were performed, data normalised to first sample in each experiment, processed through Autoplotter (56), samples as experiments, and normalised data as replicates. […] For MSDC-0160 treated samples a batch correction (to non-drug control) was used prior to analysis using Metabonalyst. Volcano plots were generated, and an FDR adjusted t-test threshold 0.1 was utilised. Note both fold changes and p-values are log transformed. Top-25 scoring metabolites are included in heatmap.

Experiment [3] has as its system CML CD34+ cells. Description: 13C stable isotope tracing (glucose, glutamine, palmitate) in primary CML CD34+ cells. To be noted: nilotinib treatment, data not shown. It is filed as cell-based, human. The procedure:
as §1, §3, §4
as §2, with “10%.” for “10%. To examine contribution to carbon pool we corrected contribution of each isotopologue by the number of carbons it contributes to a given metabolite, i.e., for glutamine contribution from m+5 is greater than m+3. Note that for cell line experiments standard deviation is shown.”

The next experiment deals with phospho-AMPK. To be noted: previously shown (ref 42); cited from earlier work.
The test system of a further experiment is K562 cells. Description: Viability (Annexin V/7AAD) and CFC assays of vector control versus PC knockout K562 cells. The format is cell-based, human. To be noted: 72 hours; 600 nm imatinib or 100 nm omacetaxine. As to the method:
(a) Western blot of PC and loading control (tubulin) from vector control or PC knockout K562 cells. (b) Proliferation of K562 cells from A. Shown is average and SEM from 3 independent experiments. (c) Fractional labelling from ^13C6 glucose into indicated metabolites of PC knockout cells are shown (n=3) after 24 hours. Plots were generated using Autoplotter, average and SD are plotted. Statistical analyses were conducted on the m+5 fraction. An ordinary one-way ANOVA was used with Dunnett's test used to correct for multiple comparisons. (d) Cells viability was measured using Annexin V and 7AAD. Cells were either left untreated (UT) or exposed for 72 hours to 600 nm imatinib or 100 nm omacetaxine (OMA). Shown is average and SEM from 4 independent experiments. An ordinary one-way ANOVA was used with Dunnett's test used to correct for multiple comparisons. (e) Colony Forming Cell (CFC) potential of control and […] cells. Cells were either left untreated (UT) or exposed for 72 hours to 600 nm imatinib. Shown is average and SEM from 4 independent experiments. An ordinary one-way ANOVA was used with Dunnett's test used to correct for multiple comparisons. […]

Turning to `O=C(Nc1ccc(OC(F)(F)Cl)cc1)c1cnc(N2CC[C@@H](O)C2)c(-c2ccn[nH]2)c1` [ABL-001], in the experiment on CML CD34+ cells [1] (ABL-001 10 mg/kg/day (5 mg/kg BID), 12 weeks engraftment), the “engraftment of human CML cells in bone marrow” value is given as “variable increase in engraftment”. The “CD34+ cells in bone marrow” value in the experiment with CML CD34+ cells [1] (ABL-001 10 mg/kg/day) is “not affected”.

For `N#C/C(=C\c1cn(-c2ccccc2)c2ccccc12)C(=O)O` [UK-5099], the “labelled fractions in alpha-ketoglutarate (AKG) and AKG-derived glutamate” value in the experiment with K562 CML cell line is reported as “reducing levels of all labelled fractions in these metabolites in a concentration-dependent manner”. Also, the “glucose contribution to fraction of labelling” value with K562 CML cell line (data not shown) is recorded as “concentration-dependent reduction”.

Regarding `Cc1cn(-c2cc(NC(=O)c3ccc(C)c(Nc4nccc(-c5cccnc5)n4)c3)cc(C(F)(F)F)c2)cn1` [nilotinib], the total metabolite levels entry in the experiment on CML CD34+ cells [2] is given as “reduction”. Moreover, the “13C-glucose incorporation into TCA cycle metabolites” value with CML CD34+ cells [3] was “reduction”. The “phospho-AMPK in CD34+ CML cells” value in the experiment with phospho-AMPK is listed as “increase”.

For `COC(=O)C[C@](O)(CCCC(C)(C)O)C(=O)O[C@@H]1C(OC)=C[C@]23CCCN2CCc2cc4c(cc2[C@H]13)OCO4` [omacetaxine mepesuccinate], the “sensitisation of K562 to the drug by PC ablation, viability and CFC assays” value with K562 cells is on record as “not observed”.
